According to patent publication US8247211B2, “Glycopeptide antibiotics” (American Cyanamid Company, priority 2001, dated 2012):
Converted amounts (≈) assume the structure as drawn.

Key:
Experiment in all cases: In vitro antibacterial evaluation: minimum inhibitory concentration (MIC), broth dilution method
Assay type in all cases: cell-based
Conditions in all cases: 18 hours at 35° C.
Escherichia coli = tested on: Escherichia coli
How it was run: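 Test strains, among them recent clinical isolates carrying methicillin, penicillin and/or vancomycin resistance, were inoculated at 5×10^5 CFU/mL. A broth dilution series spanning 64-0.06 μg/mL in Muller-Hinton II […] (NCCLS M7-A2) defined the MIC as the lowest growth-inhibiting concentration.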

Enterococcus sp. = tested on: Enterococcus sp.
How it was run: (§1)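 NCCLS M7-A2 broth dilution; Muller-Hinton II […]; 5×10^5 CFU/mL; 64-0.06 μg/mL. MIC = lowest concentration with no growth.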

Staphylococcus sp. = tested on: Staphylococcus sp.
How it was run: as §1

Streptococcus sp. = tested on: Streptococcus sp.
How it was run: as §1

[1] = broth dilution, inoculum 5×10^5 CFU/mL

MIC Escherichia coli (ATCC 25922) (Escherichia coli; Escherichia coli (ATCC 25922)): >64 µg/mL | MIC Escherichia coli (GC 4559) (Escherichia coli; Escherichia coli (GC 4559)): 64 µg/mL (≈ 45.2 µM) | MIC Escherichia coli (GC 4560) (Escherichia coli; Escherichia coli (GC 4560)): 2 µg/mL (≈ 1.41 µM) | MIC Enterococcus avium (GC 4558) (Enterococcus sp.; Enterococcus avium (GC 4558)): 32 µg/mL (≈ 22.6 µM) | MIC Enterococcus faecalis (ATCC 29212) (Enterococcus sp.; Enterococcus faecalis (ATCC 29212)): 32 µg/mL (≈ 22.6 µM) | MIC Enterococcus faecalis (GC 2242) (Enterococcus sp.; Enterococcus faecalis (GC 2242)): 16 µg/mL (≈ 11.3 µM) | MIC Enterococcus faecalis (GC 2691) (Enterococcus sp.; Enterococcus faecalis (GC 2691)): 32 µg/mL (≈ 22.6 µM) | MIC Enterococcus faecalis (GC 3059) (Enterococcus sp.; Enterococcus faecalis (GC 3059)): 32 µg/mL (≈ 22.6 µM) | MIC Enterococcus faecalis (GC 4552) (Enterococcus sp.; Enterococcus faecalis (GC 4552)): 32 µg/mL (≈ 22.6 µM) | MIC Enterococcus faecalis (GC 4553) (Enterococcus sp.; Enterococcus faecalis (GC 4553)): 32 µg/mL (≈ 22.6 µM) | MIC Enterococcus faecalis (GC 4554) (Enterococcus sp.; Enterococcus faecalis (GC 4554)): 32 µg/mL (≈ 22.6 µM) | MIC Enterococcus faecalis (GC 6189) (Enterococcus sp.; Enterococcus faecalis (GC 6189)): 64 µg/mL (≈ 45.2 µM) | MIC Enterococcus faecium (GC 2243) (Enterococcus sp.; Enterococcus faecium (GC 2243)): 16 µg/mL (≈ 11.3 µM) | MIC Enterococcus faecium (GC 4556) (Enterococcus sp.; Enterococcus faecium (GC 4556)): 32 µg/mL (≈ 22.6 µM) | MIC Enterococcus faecium (GC 4557) (Enterococcus sp.; Enterococcus faecium (GC 4557)): 4 µg/mL (≈ 2.83 µM) | MIC Enterococcus avium (GC 4558) (Enterococcus sp.; [1]): 32 µg/mL (≈ 22.6 µM) | MIC Enterococcus faecalis (ATCC 29212) (Enterococcus sp.; [1]): 32 µg/mL (≈ 22.6 µM) | MIC Enterococcus faecalis (GC 2242) (Enterococcus sp.; [1]): 16 µg/mL (≈ 11.3 µM) | MIC Enterococcus faecalis (GC 2691) (Enterococcus sp.; [1]): 32 µg/mL (≈ 22.6 µM) | MIC Enterococcus faecalis (GC 3059) (Enterococcus sp.; [1]): 32 µg/mL (≈ 22.6 µM) | MIC Enterococcus faecalis (GC 4552) (Enterococcus sp.; [1]): 32 µg/mL (≈ 22.6 µM) | MIC Enterococcus faecalis (GC 4553) (Enterococcus sp.; [1]): 32 µg/mL (≈ 22.6 µM) | MIC Enterococcus faecalis (GC 4554) (Enterococcus sp.; [1]): 32 µg/mL (≈ 22.6 µM) | MIC Enterococcus faecalis (GC 6189) (Enterococcus sp.; [1]): 64 µg/mL (≈ 45.2 µM) | MIC Enterococcus faecium (GC 2243) (Enterococcus sp.; [1]): 16 µg/mL (≈ 11.3 µM) | MIC Enterococcus faecium (GC 4556) (Enterococcus sp.; [1]): 32 µg/mL (≈ 22.6 µM) | MIC Enterococcus faecium (GC 4557) (Enterococcus sp.; [1]): 4 µg/mL (≈ 2.83 µM) | MIC Coagulase Negative Staphylococcus (GC 4547) (Staphylococcus sp.; Coagulase Negative Staphylococcus (GC 4547)): 2 µg/mL (≈ 1.41 µM) | MIC Coagulase Negative Staphylococcus (GC 4548) (Staphylococcus sp.; Coagulase Negative Staphylococcus (GC 4548)): 2 µg/mL (≈ 1.41 µM) | MIC Coagulase Negative Staphylococcus (GC 4549) (Staphylococcus sp.; Coagulase Negative Staphylococcus (GC 4549)): 1 µg/mL (≈ 0.707 µM) | MIC Coagulase Negative Staphylococcus (GC 4551) (Staphylococcus sp.; Coagulase Negative Staphylococcus (GC 4551)): 4 µg/mL (≈ 2.83 µM) | MIC Coagulase Negative Staphylococcus (GC 6257) (Staphylococcus sp.; Coagulase Negative Staphylococcus (GC 6257)): 2 µg/mL (≈ 1.41 µM) | MIC Staphylococcus aureus (ATCC 29213) (Staphylococcus sp.; Staphylococcus aureus (ATCC 29213)): 4 µg/mL (≈ 2.83 µM) | MIC Staphylococcus aureus (GC 1131) (Staphylococcus sp.; Staphylococcus aureus (GC 1131)): 4 µg/mL (≈ 2.83 µM) | MIC Staphylococcus aureus (GC 3051) (Staphylococcus sp.; Staphylococcus aureus (GC 3051)): 4 µg/mL (≈ 2.83 µM) | MIC Staphylococcus aureus (GC 3053) (Staphylococcus sp.; Staphylococcus aureus (GC 3053)): 8 µg/mL (≈ 5.65 µM) | MIC Staphylococcus aureus (GC 4541) (Staphylococcus sp.; Staphylococcus aureus (GC 4541)): 4 µg/mL (≈ 2.83 µM) | MIC Staphylococcus aureus (GC 4542) (Staphylococcus sp.; Staphylococcus aureus (GC 4542)): 4 µg/mL (≈ 2.83 µM) | MIC Staphylococcus aureus (GC 4544) (Staphylococcus sp.; Staphylococcus aureus (GC 4544)): 4 µg/mL (≈ 2.83 µM) | MIC Staphylococcus aureus (GC 4545) (Staphylococcus sp.; Staphylococcus aureus (GC 4545)): 4 µg/mL (≈ 2.83 µM) | MIC Staphylococcus aureus-SMITH (GC 4543) (Staphylococcus sp.; Staphylococcus aureus-SMITH (GC 4543)): 4 µg/mL (≈ 2.83 µM) | MIC Streptococcus agalactiae (GC 4564) (Streptococcus sp.; Streptococcus agalactiae (GC 4564)): 2 µg/mL (≈ 1.41 µM) | MIC Streptococcus pneumoniae (ATCC 6301) (Streptococcus sp.; Streptococcus pneumoniae (ATCC 6301)): 0.5 µg/mL (≈ 0.353 µM) | MIC Streptococcus pneumoniae (GC 1894) (Streptococcus sp.; Streptococcus pneumoniae (GC 1894)): 0.5 µg/mL (≈ 0.353 µM) | MIC Streptococcus pneumoniae (GC 4565) (Streptococcus sp.; Streptococcus pneumoniae (GC 4565)): 1 µg/mL (≈ 0.707 µM) | MIC Streptococcus pyogenes (GC 4563) (Streptococcus sp.; Streptococcus pyogenes (GC 4563)): 2 µg/mL (≈ 1.41 µM) | MIC Streptococcus agalactiae (GC 4564) (Streptococcus sp.; [1]): 2 µg/mL (≈ 1.41 µM) | MIC Streptococcus pneumoniae (ATCC 6301) (Streptococcus sp.; [1]): 0.5 µg/mL (≈ 0.353 µM) | MIC Streptococcus pneumoniae (GC 1894) (Streptococcus sp.; [1]): 0.5 µg/mL (≈ 0.353 µM) | MIC Streptococcus pneumoniae (GC 4565) (Streptococcus sp.; [1]): 1 µg/mL (≈ 0.707 µM) | MIC Streptococcus pyogenes (GC 4563) (Streptococcus sp.; [1]): 2 µg/mL (≈ 1.41 µM)
SMILES: COc1ccc(COCC2OC(OC3C(CO)OC(Oc4ccc(CC5NC(=O)C(C(C)c6ccccc6)NC(=O)CNC(=O)C(CO)NC(=O)C(C(O)C6CNC(=N)N6C6OC(CO)C(O)C(O)C6O)NC(=O)C(C(O)C6CNC(=N)N6)NC5=O)cc4)C(O)C3O)C(O)C(O)C2O)cc1 (stereo not drawn) [Example 232, Cyclo[glycyl-β-methylphenylalanyl-O-[4-O-[6-O-(4-methoxybenzyl)hexopyranosyl]hexopyranosyl]tyrosyl-3-(2-iminoimidazolidin-4-yl)seryl-3-(3-hexopyranosyl-2-iminoimidazolidin-4-yl)serylseryl]]
MIC Staphylococcus haemolyticus (GC 4546) (Staphylococcus sp.; Staphylococcus haemolyticus (GC 4546)): 2 µg/mL (≈ 1.41 µM)
